Legend:
[1] = target: T1, DPP-IV obtained from pig kidney (Sus scrofa, UniProt P22411); experiment: Measurement of DPPIV-inhibiting activity (in vitro experiment); format: biochemical; settings: DPP-IV from pig kidney 10 mU/mL, substrate Gly-Pro-p-nitroanilide 0.33 mM, 20 min preincubation, 20 min reaction, absorbance 405 nm
T1 construct: DPP-IV obtained from pig kidney; from tissue; host or cells: pig kidney
Method: DPP-IV obtained from pig kidney was dissolved in a reaction buffer (50 mM Tris-HCl pH7.4, 0.1% BSA) at 10 mU/mL, and 110 μL of this was used. 15 μL of the drug obtained from the aforementioned Examples was added, and this was incubated at room temperature for 20 minutes, and then 25 μL of a 2 mM solution of Gly-Pro-p-nitroanilide (final concentration 0.33 mM) was added to start the enzymatic reaction. The reaction time was 20 minutes, and 1 N phosphoric acid solution (25 μL) was added to stop the reaction.

[2] = test system: normal mice (male C57BL/6N); experiment: Effects on glucose tolerance in normal mice (in vivo experiment); settings: 1 mg/kg oral, 30 min before oral glucose 2 g/kg; blood glucose AUC0-120; 0.5% MC group = 100%, NVP DPP728 (10 mg/kg) group = 0%; lower = better
Method: Animals: Male C57BL/6N mice (purchased from Japan Charles River) The test compounds were suspended in a 0.5% methylcellulose (MC) solution at the doses indicated below in Table 2. These test compounds and the NVP DPP728 (U.S. Pat. No. 6,011,155) suspension, or the 0.5% MC solution (the solvent control group), were administered orally at a dose of 10 mL/kg. 30 minutes later, a glucose solution was orally administered at a dose of 10 mL/kg. Glucose was orally administered at a dose of 2 g/kg. The tail vain of unanesthetized mice was cut with a razor blade to cause a small amount of bleeding immediately before administering the test substances or NVP DPP728, and immediately before, as well as 30, 60, and 120 minutes after, administration of the glucose solution. 10 μL of blood was collected, and this was mixed immediately with 0.6 M perchloric acid (140 μL). Glucose present in the supernatant obtained by centrifugation (1500 g, 10 minutes, 4° C., refrigerated centrifuge GS-6KR, Beckman) was measured using Glucose CII Test Wako (Wako Pure Chemicals). Results: In each of the groups to which 0.5% MC solution, NVP DPP728, and the test compounds were administered, the area under the curve of blood glucose vs. time was calculated over 0 to 120 minutes from the time of glucose administration (AUC0-120). Defining the AUC0-120 for the 0.5% MC solution-administered group as 100%, and the AUC0-120 for the NVP DPP728 (10 mg/kg)-administered group as 0%, the degree of improvement in glucose tolerance due to the test compound was calculated by the following equation: Degree of improvement in glucose tolerance (%)=(AUC0-120 of the test compound−AUC0-120 of the NVP DPP728 (10 mg/kg)-administered group)/(AUC0-120 of the 0.5% MC solution-administered group−AUC0-120 of the NVP DPP728 (10 mg/kg)-administered group)×100 The lower the % value, the better the degree of improvement in glucose tolerance.

T1 sequence (P22411 whole entry): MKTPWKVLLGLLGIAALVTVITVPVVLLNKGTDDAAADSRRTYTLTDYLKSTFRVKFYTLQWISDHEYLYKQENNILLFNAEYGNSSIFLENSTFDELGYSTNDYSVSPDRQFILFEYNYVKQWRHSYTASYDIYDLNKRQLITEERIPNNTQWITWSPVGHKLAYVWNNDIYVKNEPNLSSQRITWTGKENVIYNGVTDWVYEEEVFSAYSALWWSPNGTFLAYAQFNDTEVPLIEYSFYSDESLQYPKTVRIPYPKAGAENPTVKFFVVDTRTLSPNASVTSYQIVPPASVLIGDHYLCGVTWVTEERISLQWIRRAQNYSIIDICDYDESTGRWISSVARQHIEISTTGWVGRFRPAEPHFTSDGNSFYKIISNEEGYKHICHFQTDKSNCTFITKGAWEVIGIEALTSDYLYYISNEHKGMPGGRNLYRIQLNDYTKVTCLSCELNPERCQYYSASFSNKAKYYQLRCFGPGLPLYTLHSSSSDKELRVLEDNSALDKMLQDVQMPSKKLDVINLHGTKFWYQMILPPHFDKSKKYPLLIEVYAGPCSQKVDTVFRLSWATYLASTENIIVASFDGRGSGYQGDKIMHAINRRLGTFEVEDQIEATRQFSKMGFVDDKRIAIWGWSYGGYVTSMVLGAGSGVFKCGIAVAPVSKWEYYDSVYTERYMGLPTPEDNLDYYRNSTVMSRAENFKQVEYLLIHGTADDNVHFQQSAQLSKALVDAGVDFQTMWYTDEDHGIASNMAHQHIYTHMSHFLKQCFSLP

Structure (SMILES) | IC50 [1] [nM] | Degree of improvement in glucose tolerance (%) [2] [%]
C=CCn1c(=O)n(CC#CC)c2c(N3CCNCC3)nc(OC)nc21.O=C(O)C(F)(F)F [Example 47, 9-Allyl-7-(2-butynyl)-2-methoxy-6-(piperazin-1-yl)-7,9-dihydropurin-8-one trifluoroacetic acid salt] | 167 | 11.6
CC#CCn1c(=O)n(CCC)c2nc(OC)nc(N3CCNCC3)c21.O=C(O)C(F)(F)F [Example 52, 7-(2-Butynyl)-2-methoxy-6-(piperazin-1-yl)-9-propyl-7,9-dihydropurin-8-one trifluoroacetic acid salt] | 175 | 29.7
CC#CCn1c(=O)n(CC2CC2)c2nc(OC)nc(N3CCNCC3)c21.O=C(O)C(F)(F)F [Example 51, 7-(2-Butynyl)-9-cyclopropylmethyl-2-methoxy-6-(piperazin-1-yl)-7,9-dihydropurin-8-one trifluoroacetic acid salt] | 130 | 59.3
CC#CCn1c(=O)n(-c2cnc(OC)nc2)c2ncnc(N3CCNCC3)c21.O=C(O)C(F)(F)F [Example 64, 7-(2-Butynyl)-9-(2-methoxy-pyrimidin-5-yl)-6-(piperazin-1-yl)-7,9-dihydropurin-8-one trifluoroacetic acid salt] | 32.5 | −11.4
CC#CCn1c(=O)n(-c2ccnc(Cl)c2)c2ncnc(N3CCNCC3)c21.O=C(O)C(F)(F)F [Example 65, 7-(2-Butynyl)-9-(2-chloro-pyridin-4-yl)-6-(piperazin-1-yl)-7,9-dihydropurin-8-one trifluoroacetic acid salt] | 16.7 | 9.5
CC#CCn1c(=O)n(C)c2nc(OCC)nc(N3CCNCC3)c21.O=C(O)C(F)(F)F [Example 10, 7-(2-Butynyl)-2-ethoxy-9-methyl-6-(piperazin-1-yl)-7,9-dihydropurin-8-one trifluoroacetic acid salt] | 251 | 17.3
C=CCn1c(=O)n(CC#CC)c2c(N3CCNCC3)ncnc21.O=C(O)C(F)(F)F [Example 69, 9-Allyl-7-(2-butynyl)-6-(piperazin-1-yl)-7,9-dihydropurin-8-one trifluoroacetic acid salt] | 224 | 44.1
CC#CCn1c(=O)n(C)c2nc(Oc3ccccc3C#N)nc(N3CCNCC3)c21.O=C(O)C(F)(F)F [Example 13, 2-[7-(2-Butynyl)-9-methyl-8-oxo-6-(piperazin-1-yl)-8,9-dihydro-7H-purin-2-yloxy]benzonitrile trifluoroacetic acid salt] | 24.7 | 33.5
CC#CCn1c(=O)n(CC#CC)c2c(N3CCNCC3)nc(OC)nc21.O=C(O)C(F)(F)F [Example 48, 7,9-Di-(2-butynyl)-2-methoxy-6-(piperazin-1-yl)-7,9-dihydropurin-8-one trifluoroacetic acid salt] | 71.6 | 37.4
C=CCOc1nc(N2CCNCC2)c2c(n1)n(C)c(=O)n2CC#CC.O=C(O)C(F)(F)F [Example 15, 2-Allyloxy-7-(2-butynyl)-9-methyl-6-(piperazin-1-yl)-7,9-dihydropurin-8-one trifluoroacetic acid salt] | 319 | 46
CC#CCn1c(=O)n(-c2cccnc2)c2nc(Cl)nc(N3CCNCC3)c21.O=C(O)C(F)(F)F [Example 46, 7-(2-Butynyl)-2-chloro-6-(piperazin-1-yl)-9-(pyridin-3-yl)-7,9-dihydropurin-8-one trifluoroacetic acid salt] | 42.6 | 37
CC#CCn1c(=O)n(-c2ccccc2)c2nc(OC)nc(N3CCNCC3)c21.O=C(O)C(F)(F)F [Example 54, 7-(2-Butynyl)-2-methoxy-9-phenyl-6-(piperazin-1-yl)-7,9-dihydropurin-8-one trifluoroacetic acid salt] | 88.8 | 24.4
CC#CCn1c(=O)n(C)c2nc(OC(C)C)nc(N3CCNCC3)c21.O=C(O)C(F)(F)F [Example 7, 7-(2-Butynyl)-2-isopropoxy-9-methyl-6-(piperazin-1-yl)-7,9-dihydropurin-8-one trifluoroacetic acid salt] | 199 | 19.8
CC#CCn1c(=O)n(-c2cccnc2)c2ncnc(N3CCNCC3)c21.O=C(O)C(F)(F)F [Example 61, 7-(2-Butynyl)-6-(piperazin-1-yl)-9-(pyridin-3-yl)-7,9-dihydropurin-8-one trifluoroacetic acid salt] | 61.9 | 9.4

— US7524847B2, “Fused 1,3-dihydro-imidazole ring compounds” (Eisai R&D Management Co., Ltd., priority 2002, dated 2009)
